Measurements reported in patent US10648035B2, “Methods and compositions for diagnosing and treating gastric cancer” (THE JOHNS HOPKINS UNIVERSITY, priority 2012, dated 2020).

Legend:
[1] = test system: claudin-11 mRNA expression in AGS gastric cancer cells; experiment: Claudin-11 mRNA re-expression in AGS cells after demethylating treatment (qRT-PCR); type: cell-based; parameters: claudin-11 mRNA expression, ratio of treated vs. untreated cells: dose or concentration left out as unconfirmed
Text: FIG. 23. Claudin-11 mRNA re-expression in AGS gastric cancer cells after treatment with 5-Aza-dC. AGS is a gastric cancer cell line manifesting hypermethylation of the claudin-11 promoter in conjunction with absent claudin-11 mRNA expression (FIG. 17). Total RNAs from AGS cells before and after 5-aza-2-deoxycytidine treatment were subjected to quantitative real-time RT-PCR analysis. The Y-axis represents the expression ratio of 5-aza-dC-treated vs. untreated cells. […] This restoration of claudin-11 expression after 5-Aza-dC treatment supports our hypothesis that claudin-11 is silenced by promoter hypermethylation in GC cells.
[…] Total RNAs extracted before vs. after treatment were subjected to qRT-PCR for CLDN11.

Barx1 expression in AGS = experiment: Barx1 mRNA re-expression in AGS after 5-Aza-dC treatment; type: cell-based; details: AGS cells after treatment

Nc1ncn([C@H]2C[C@H](O)[C@@H](CO)O2)c(=O)n1 [5-Aza-dC, 5-aza-2-deoxycytidine]
CLDN11 mRNA re-expression ([1]; 1 μM, varying time intervals): CLDN11 mRNA became more re-expressed | claudin-11 mRNA expression, ratio of treated vs. untreated cells ([1]; first 72 hrs. of treatment): time-dependent increase in claudin-11 mRNA expression | Barx1 mRNA re-expression (Barx1 expression in AGS): restoration of Barx1 expression | Barx1 mRNA re-expression (Barx1 expression in AGS; listed as 5-AzaC): BARX mRNA re-expression
